Measurements from patent publication US12077503B2, “Substituted cyclic amides and their use as herbicides” (FMC CORPORATION, priority 2015, dated 2024).

Columns and labels:
Type in all cases: in vivo
[1] = tested on: barnyardgrass (Echinochloa crus-galli); assay: Test G Pre-Emergence Protocol; details: Echinochloa crus-galli, pre-emergence, 312 h, evaluated after 13 days; for pest or weed control at 15.625 g/ha: 15.625 g ai/ha; for pest or weed control at 15.625 g/ha / pest or weed control at 250 g/ha: read-out: Barnyardgrass damage rating (100=total damage to plant; 0=no damage to plant); for pest or weed control at 62.5 g/ha: 62.5 g ai/ha, 100=total damage to plant, 0=no damage to plant, read-out: Barnyardgrass damage rating; for pest or weed control at 250 g/ha: 250 g ai/ha
Procedure, shortened: (§1)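 Herbicidal effect was rated 13 days post-application on a scale where 100 equals total damage. Spraying took place the day after sowing, using 15.625, 62.5 or 250 g/ha of compound in a 50:50 acetone/water solution with 0.5% Tween 20.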

[2] = tested on: corn (Zea mays); assay: Test G Pre-Emergence Protocol; details: Zea mays, pre-emergence, 312 h, evaluated after 13 days; for plant injury at 15.625 g/ha: 15.625 g ai/ha; for plant injury at 15.625 g/ha / plant injury at 250 g/ha: read-out: Corn damage rating (100=total damage to plant; 0=no damage to plant); for plant injury at 62.5 g/ha: 62.5 g ai/ha, 100=total damage to plant, 0=no damage to plant, read-out: Corn damage rating; for plant injury at 250 g/ha: 250 g ai/ha
Procedure, shortened: as §1

[3] = tested on: giant foxtail (Setaria faberi); assay: Test G Pre-Emergence Protocol; details: Setaria faberi, pre-emergence, 312 h, evaluated after 13 days; for pest or weed control at 15.625 g/ha: 15.625 g ai/ha; for pest or weed control at 15.625 g/ha / pest or weed control at 250 g/ha: read-out: Foxtail, Giant damage rating (100=total damage to plant; 0=no damage to plant); for pest or weed control at 62.5 g/ha: 62.5 g ai/ha, 100=total damage to plant, 0=no damage to plant, read-out: Foxtail, Giant damage rating; for pest or weed control at 250 g/ha: 250 g ai/ha
Procedure, shortened: as §1

[4] = tested on: ivy-leaved morning glory (Ipomoea hederacea); assay: Test G Pre-Emergence Protocol; details: Ipomoea, pre-emergence, 312 h, evaluated after 13 days; for pest or weed control at 15.625 g/ha: 15.625 g ai/ha; for pest or weed control at 15.625 g/ha / pest or weed control at 250 g/ha: read-out: Morningglory, Ivy-leaved damage rating (100=total damage to plant; 0=no damage to plant); for pest or weed control at 62.5 g/ha: 62.5 g ai/ha, 100=total damage to plant, 0=no damage to plant, read-out: Morningglory, Ivy-leaved damage rating; for pest or weed control at 250 g/ha: 250 g ai/ha
Procedure, shortened: as §1

[5] = tested on: redroot pigweed (Amaranthus retroflexus); assay: Test G Pre-Emergence Protocol; details: Amaranthus retroflexus, pre-emergence, 312 h, evaluated after 13 days; for pest or weed control at 15.625 g/ha: 15.625 g ai/ha; for pest or weed control at 15.625 g/ha / pest or weed control at 250 g/ha: read-out: Pigweed, Redroot damage rating (100=total damage to plant; 0=no damage to plant); for pest or weed control at 62.5 g/ha: 62.5 g ai/ha, 100=total damage to plant, 0=no damage to plant, read-out: Pigweed, Redroot damage rating; for pest or weed control at 250 g/ha: 250 g ai/ha
Procedure, shortened: as §1

[6] = tested on: velvetleaf (Abutilon theophrasti); assay: Test G Pre-Emergence Protocol; details: Abutilon theophrasti, pre-emergence, 312 h, evaluated after 13 days; for pest or weed control at 15.625 g/ha: 15.625 g ai/ha; for pest or weed control at 15.625 g/ha / pest or weed control at 250 g/ha: read-out: Velvetleaf damage rating (100=total damage to plant; 0=no damage to plant); for pest or weed control at 62.5 g/ha: 62.5 g ai/ha, 100=total damage to plant, 0=no damage to plant, read-out: Velvetleaf damage rating; for pest or weed control at 250 g/ha: 250 g ai/ha
Procedure, shortened: as §1

[7] = tested on: barnyardgrass (Echinochloa crus-galli); assay: Test G Post-Emergence Protocol; details: Echinochloa crus-galli, post-emergence, 312 h, read-out: Barnyardgrass damage rating; for pest or weed control at 15.625 g/ha: 15.625 g ai/ha, evaluated after 13 days (100=total damage to plant; 0=no damage to plant); for pest or weed control at 62.5 g/ha: 62.5 g ai/ha; for pest or weed control at 62.5 g/ha / pest or weed control at 250 g/ha: evaluated after 13 days, 100=total damage to plant, 0=no damage to plant; for pest or weed control at 250 g/ha: 250 g ai/ha
Procedure, shortened: (§2)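 Foliar application was made 8 days after sowing, using an aqueous spray of the active in acetone/water (50:50) with 0.5% Tween 20, at doses of 15.625, 62.5 or 250 g/ha. Injury was assessed 13 days later, where 100 meant the plant was fully damaged.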

[8] = tested on: corn (Zea mays); assay: Test G Post-Emergence Protocol; details: Zea mays, post-emergence, 312 h, read-out: Corn damage rating; for plant injury at 15.625 g/ha: 15.625 g ai/ha, evaluated after 13 days (100=total damage to plant; 0=no damage to plant); for plant injury at 62.5 g/ha: 62.5 g ai/ha; for plant injury at 62.5 g/ha / plant injury at 250 g/ha: evaluated after 13 days, 100=total damage to plant, 0=no damage to plant; for plant injury at 250 g/ha: 250 g ai/ha
Procedure, shortened: as §2

[9] = tested on: giant foxtail (Setaria faberi); assay: Test G Post-Emergence Protocol; details: Setaria faberi, post-emergence, 312 h, read-out: Foxtail, Giant damage rating; for pest or weed control at 15.625 g/ha: 15.625 g ai/ha, evaluated after 13 days (100=total damage to plant; 0=no damage to plant); for pest or weed control at 62.5 g/ha: 62.5 g ai/ha; for pest or weed control at 62.5 g/ha / pest or weed control at 250 g/ha: evaluated after 13 days, 100=total damage to plant, 0=no damage to plant; for pest or weed control at 250 g/ha: 250 g ai/ha
Procedure, shortened: as §2

[10] = tested on: ivy-leaved morning glory (Ipomoea hederacea); assay: Test G Post-Emergence Protocol; details: Ipomoea, post-emergence, 312 h, read-out: Morningglory, Ivy-leaved damage rating; for pest or weed control at 15.625 g/ha: 15.625 g ai/ha, evaluated after 13 days (100=total damage to plant; 0=no damage to plant); for pest or weed control at 62.5 g/ha: 62.5 g ai/ha; for pest or weed control at 62.5 g/ha / pest or weed control at 250 g/ha: evaluated after 13 days, 100=total damage to plant, 0=no damage to plant; for pest or weed control at 250 g/ha: 250 g ai/ha
Procedure, shortened: as §2

[11] = tested on: redroot pigweed (Amaranthus retroflexus); assay: Test G Post-Emergence Protocol; details: Amaranthus retroflexus, post-emergence, 312 h, read-out: Pigweed, Redroot damage rating; for pest or weed control at 15.625 g/ha: 15.625 g ai/ha, evaluated after 13 days (100=total damage to plant; 0=no damage to plant); for pest or weed control at 62.5 g/ha: 62.5 g ai/ha; for pest or weed control at 62.5 g/ha / pest or weed control at 250 g/ha: evaluated after 13 days, 100=total damage to plant, 0=no damage to plant; for pest or weed control at 250 g/ha: 250 g ai/ha
Procedure, shortened: as §2

[12] = tested on: velvetleaf (Abutilon theophrasti); assay: Test G Post-Emergence Protocol; details: Abutilon theophrasti, post-emergence, 312 h, read-out: Velvetleaf damage rating; for pest or weed control at 15.625 g/ha: 15.625 g ai/ha, evaluated after 13 days (100=total damage to plant; 0=no damage to plant); for pest or weed control at 62.5 g/ha: 62.5 g ai/ha; for pest or weed control at 62.5 g/ha / pest or weed control at 250 g/ha: evaluated after 13 days, 100=total damage to plant, 0=no damage to plant; for pest or weed control at 250 g/ha: 250 g ai/ha
Procedure, shortened: as §2

| SMILES | pest or weed control at 15.625 g/ha [1] [%] | pest or weed control at 62.5 g/ha [1] [%] | pest or weed control at 250 g/ha [1] [%] | plant injury at 15.625 g/ha [2] [%] | plant injury at 62.5 g/ha [2] [%] | plant injury at 250 g/ha [2] [%] | pest or weed control at 15.625 g/ha [3] [%] | pest or weed control at 62.5 g/ha [3] [%] | pest or weed control at 250 g/ha [3] [%] | pest or weed control at 15.625 g/ha [4] [%] | pest or weed control at 62.5 g/ha [4] [%] | pest or weed control at 250 g/ha [4] [%] | pest or weed control at 15.625 g/ha [5] [%] | pest or weed control at 62.5 g/ha [5] [%] | pest or weed control at 250 g/ha [5] [%] | pest or weed control at 15.625 g/ha [6] [%] | pest or weed control at 62.5 g/ha [6] [%] | pest or weed control at 250 g/ha [6] [%] | pest or weed control at 15.625 g/ha [7] [%] | pest or weed control at 62.5 g/ha [7] [%] | other results |
| --- | --- | --- | --- | --- | --- | --- | --- | --- | --- | --- | --- | --- | --- | --- | --- | --- | --- | --- | --- | --- | --- |
| CN1C[C@H](c2cccc(C(F)(F)F)c2)[C@@H](C(=O)Nc2cnccc2F)C1=O (racemic) [Compound 1745] | 0 | 0 | 60 | 0 | 0 | 0 | 0 | 10 | 50 | 0 | 0 | 10 | 0 | 0 | 20 | 0 | 0 | 0 | 10 | 70 | pest or weed control at 250 g/ha [7]: 80%; plant injury at 15.625 g/ha [8]: 0%; plant injury at 62.5 g/ha [8]: 0%; plant injury at 250 g/ha [8]: 0%; pest or weed control at 15.625 g/ha [9]: 10%; pest or weed control at 62.5 g/ha [9]: 60%; pest or weed control at 250 g/ha [9]: 70%; pest or weed control at 15.625 g/ha [10]: 0%; pest or weed control at 62.5 g/ha [10]: 30%; pest or weed control at 250 g/ha [10]: 40%; pest or weed control at 15.625 g/ha [11]: 0%; pest or weed control at 62.5 g/ha [11]: 0%; pest or weed control at 250 g/ha [11]: 20%; pest or weed control at 15.625 g/ha [12]: 0%; pest or weed control at 62.5 g/ha [12]: 0%; pest or weed control at 250 g/ha [12]: 0% |
| C=C(C)c1cccc([C@@H]2CN(C)C(=O)[C@H]2C(=O)Nc2cccc(F)c2C)c1 (racemic) [Compound 1828] | 70 | 80 | 90 | 0 | 10 | 70 | 80 | 90 | 90 | 0 | 0 | 30 | 0 | 0 | 0 | 0 | 0 | 30 | 30 | 80 | pest or weed control at 250 g/ha [7]: 80%; plant injury at 15.625 g/ha [8]: 0%; plant injury at 62.5 g/ha [8]: 10%; plant injury at 250 g/ha [8]: 70%; pest or weed control at 15.625 g/ha [9]: 70%; pest or weed control at 62.5 g/ha [9]: 80%; pest or weed control at 250 g/ha [9]: 80%; pest or weed control at 15.625 g/ha [10]: 20%; pest or weed control at 62.5 g/ha [10]: 60%; pest or weed control at 250 g/ha [10]: 70%; pest or weed control at 15.625 g/ha [11]: 0%; pest or weed control at 62.5 g/ha [11]: 0%; pest or weed control at 250 g/ha [11]: 20%; pest or weed control at 15.625 g/ha [12]: 0%; pest or weed control at 62.5 g/ha [12]: 20%; pest or weed control at 250 g/ha [12]: 10% |
